Data reported in patent US20250282819A1, “MITOCHONDRIA-[…] PEPTIDE THAT CAN BE […] DELIVERED AT NANOMOLAR CONCENTRATION, AND USE THEREOF” (CAMP THERAPEUTICS INC., priority 2021, published 2025).
Where a SMILES comes first, the peptide text is derived from it.

Key:
[1] = Cytotoxicity by WST-1 assay; assay type: cell-based; conditions: human, HeLa cells, one day, read-out: concentration at which 50% of the cultured cells were killed
Description: The cytotoxicity was measured by WST-1 assay. Specifically, 1×10^4 HeLa cells were seeded into 96-well plates. After 24 hours, the cells were treated with different concentrations of CMP3013 peptide indicated in FIG. 12 and incubated for one day. At the end of the incubation, the culture medium was replaced with new culture medium, treatment with EZ-Cytox (DoGEN, South Korea) at 10 μL was performed per well, and incubation was performed for 30 minutes. Then, the absorbance was measured at 450 nm. As a result, it was identified that the cytotoxicity of CMP3013 was only observed at micromolar or higher levels, and the concentration, at which 50% of the cultured cells were killed, reached 10 micromolar (FIG. 12).

[2] = tested on: C57BL/6 mice; experiment: TAA-induced acute liver failure model
Description: Serum samples were obtained from blood collected from the heart on Day 6, and the samples were analyzed using a hematology analyzer (Hitachi Chemical Industries, Ltd., Japan). Blood AST (aspartate aminotransferase), ALT (alanine aminotransferase), and ALP (alkaline phosphatase) were measured and evaluated as liver injury markers.
Serum samples were obtained on the seventh day (Day 7) and analyzed using a hematology analyzer. Blood AST (aspartate aminotransferase), ALT (alanine aminotransferase), and ALP (alkaline phosphatase) were measured and evaluated as liver injury markers.

[3] = tested on: SH-SY5Y cells; experiment: ROS production inhibiting ability, comparison of SS-31 and CMP3013; assay type: cell-based; conditions: CCCP, rotenone, antimycin A or H2O2, SS-31 100 nM or 1 μM, CMP3013 10 nM or 100 nM
Description: To compare effects of the two peptides on restoration of mitochondrial function, SS-31 and CMP3013 were tested for their ROS production inhibiting ability. The relative ROS levels in cells were compared by fluorescence intensity according to the method described in Experimental Example 6. SH-SY5Y cells were treated with four different mitochondrial damaging agents (200 μM CCCP, 50 μM rotenone, 10 μM antimycin A, or 50 μM H2O2) to induce production of ROS by mitochondrial damage.
The second method was performed as follows. First, 2×10^4 HeLa cells were seeded into a 96-well plate. After 24 hours, the cells were incubated with each peptide for 3 hours, and then staining with H2DCFDA (25 μM, 30 min) was performed. After performing washing twice with PBS, the cells in HBSS were used for analysis of ROS levels. The DCF signal of each well was obtained using a microplate reader (TECAN) at 37° C. (Ex/Em=485/535 nm).

[4] = tested on: HeLa cells; experiment: ATP levels in damaged cells pretreated with peptide; assay type: cell-based; conditions: HeLa cells, 10 or 30 nM; 1 μM antimycin A or 1 mM H2O2
Description: The relative ATP levels of cells were compared by fluorescence intensity according to the method described in Experimental Example 8, and mitochondrial damage was induced by treatment with two different mitochondrial damaging agents (1 μM of antimycin A or 1 mM of H2O2).
Cellular ATP levels were assessed using an ATP detection kit (Abcam, ab113849, USA) according to the manufacturer's instructions. Fluorescence luminescence was measured with a microplate reader (Promega, Glomax 96 microplate luminometer, USA).

[5] = Oligomerization tendency by HPLC retention time at 40 and 5° C.; assay type: physicochemical; conditions: 10 μl of 0.2 mM peptide
Description: Specifically, 10 μl of each peptide solution at 0.2 mM was injected into HPLC, and the time at which the peptide was detected (RT) was measured at 40° C. and 5° C., respectively. Here, the stationary phase and mobile phase conditions of the HPLC were set using well-known methods. In general, the better the oligomer is formed, the detection time becomes longer at 40° C., which is a relatively higher temperature, thereby resulting in larger ΔΔRT that is a difference from the value measured at 5° C.

[6] = Cardiolipin binding assay, NBD fluorescence with liposomes
Description: To further validate specificity of CMP3013 for cardiolipin-rich membranes identified in Example 9, two model systems mimicking the inner mitochondrial membrane were constructed using POPC (1-palmitoyl-2-oleoyl-sn-glycero-3-phosphocholine) and POPE (1-palmitoyl-2-oleoyl-sn-glycero-3-phosphoethanolamine), and cardiolipin binding assays were performed using an NBD-labeled CMP3013 monomer (NBD-CMP3013m), according to the method described in Experimental Example 12.
For the association experiments, 1 μM of NBD-labeled peptide dissolved in PBS was prepared in a black 96-well plate. Liposome (POPC:POPE=2:1 or POPC:POPE=2:1, containing 10% cardiolipin) was added to the peptide until the desired concentration was achieved. The mixture of NBD-peptide and liposome was mixed well through pipetting, and then fluorescence emission of the sample was monitored (λex=467 nm, λem=536 nm).
For the association experiments depending on cardiolipin ratio, 1 μM of NBD-labeled peptide or C6-NBD dissolved in PBS was prepared in a black 96-well plate. Liposome (POPC:POPE=2:1, containing 0 to 20% cardiolipin) was added to the peptide until the desired concentration (5 μM) was achieved. This mixture was mixed well through pipetting and fluorescence emission of the sample was monitored (λex=467 nm, λem=536 nm).
For dissociation experiments, 1 μM of NBD-labeled peptide dissolved in PBS was prepared in a black 96-well plate. Liposome (POPC:POPE=2:1 or POPC:POPE=2:1, containing 10% cardiolipin) was added to the peptide until the desired concentration (100 μM) was achieved. The mixture of NBD-peptide and liposome was mixed well through pipetting and fluorescence intensity of the mixture was measured (λex=467 nm, λem=536 nm). The unlabeled peptide (acetylated peptide) was then added to the mixture and mixed well through pipetting. Incubation in the dark was performed for 10 minutes, and then changes in fluorescence intensity were monitored. Peptide addition and fluorescence measurement were repeated until the concentration of acetylated peptide reached 40 μM.

[7] = 1 mg/kg intravenous x3, TAA 100 mg/kg Day 5, serum Day 6
[8] = mice, 1 mg/kg intravenous, Days 0, 2, 4

## CC(=O)N[C@@H](CC1CCCCC1)C(=O)N[C@H]1CSSC[C@@H](C(=O)N[C@@H](CCCNC(=N)N)C(N)=O)NC(=O)[C@H](CC2CCCCC2)NC(=O)[C@H](CCCNC(=N)N)NC(=O)[C@H](CCCNC(=N)N)NC(=O)[C@H](CC2CCCCC2)NC(=O)[C@H](CC(C)C)NC(=O)[C@H](CCCNC(=N)N)NC(=O)[C@@H](NC(=O)[C@H](CC2CCCCC2)NC(C)=O)CSSC[C@@H](C(=O)N[C@@H](CCCNC(=N)N)C(N)=O)NC(=O)[C@H](CC2CCCCC2)NC(=O)[C@H](CCCNC(=N)N)NC(=O)[C@H](CCCNC(=N)N)NC(=O)[C@H](CC2CCCCC2)NC(=O)[C@H](CC(C)C)NC(=O)[C@H](CCCNC(=N)N)NC1=O [CMP3013] (HELM PEPTIDE1{[ac].[Cha].C.R.L.[Cha].R.R.[Cha].C.R.[am]}|PEPTIDE2{[ac].[Cha].C.R.L.[Cha].R.R.[Cha].C.R.[am]}$PEPTIDE1,PEPTIDE2,3:R3-10:R3|PEPTIDE1,PEPTIDE2,10:R3-3:R3$$$V2.0)
[1]
  CC50 at 24 h: 10 µM
[2]; 1 mg/kg intravenous x3
  ALP decrease as compared with the TAA-administered group: 19%
  AST reduction as compared with the group having received TAA alone: 35%
[2]; [7]
  blood ALP: 462.00±81.10 U/L
  blood ALT: 332.60±86.31 U/L
  blood AST: 316.40±52.65 U/L
[2]; intraperitoneal 1, 5, or 10 mg/kg
  dose dependence of AST and ALT decrease: dose-dependent manner
[2]; intraperitoneal x3, TAA 100 mg/kg Day 5, serum Day 7
  blood AST, ALT, and ALP: all significantly reduced
[2]; [8]
  adverse events: no adverse events occurred
  mortality: no animals died
[2]; mice, TAA and/or CMP3013
  weight loss: no weight loss was observed
[3]
  ROS production inhibiting ability: equivalent or better ROS production inhibiting ability than SS-31
[4]
  ATP production promoting ability: promoting resumption of ATP production
[5]
  Oligomerization tendency (RT at 40-5° C.) ΔΔRT: 2.683 min
[6]
  stronger binding capacity for cardiolipin than SS-31: approximately 100 fold
